Measurements as given in patent US20090274778A1 (priority 2004, published 2009).

Experiments:
COX-2 = target: T1, COX-2 (Homo sapiens, UniProt P35354); conditions: specificity for COX-2 over COX-1, background statement; cited from earlier work
T1 sequence (P35354 18-604): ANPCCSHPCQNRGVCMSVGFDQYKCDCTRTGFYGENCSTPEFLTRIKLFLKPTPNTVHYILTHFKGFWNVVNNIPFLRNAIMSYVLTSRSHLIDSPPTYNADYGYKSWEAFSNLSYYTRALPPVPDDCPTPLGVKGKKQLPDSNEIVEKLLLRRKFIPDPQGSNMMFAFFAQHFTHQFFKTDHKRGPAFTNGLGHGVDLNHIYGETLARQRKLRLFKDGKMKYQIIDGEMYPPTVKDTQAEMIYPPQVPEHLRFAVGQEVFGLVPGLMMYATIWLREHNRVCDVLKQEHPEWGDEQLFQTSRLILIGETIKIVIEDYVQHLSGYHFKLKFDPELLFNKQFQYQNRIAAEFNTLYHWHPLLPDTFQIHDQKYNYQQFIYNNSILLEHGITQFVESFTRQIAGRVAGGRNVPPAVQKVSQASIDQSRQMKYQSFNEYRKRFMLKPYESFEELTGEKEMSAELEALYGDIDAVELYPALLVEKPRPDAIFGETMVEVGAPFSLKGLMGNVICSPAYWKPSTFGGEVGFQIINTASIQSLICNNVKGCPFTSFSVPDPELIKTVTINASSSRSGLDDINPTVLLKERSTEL

COX-1 enzyme (ovine) = target: T2, COX-1 enzyme (ovine) (Ovis aries, UniProt P05979); assay: COX-1 enzyme inhibition (COX-1 synthesis of PGE2); assay type: biochemical
T2 construct: purchased Cayman Chemical 60100
T2 sequence (P05979 25-600): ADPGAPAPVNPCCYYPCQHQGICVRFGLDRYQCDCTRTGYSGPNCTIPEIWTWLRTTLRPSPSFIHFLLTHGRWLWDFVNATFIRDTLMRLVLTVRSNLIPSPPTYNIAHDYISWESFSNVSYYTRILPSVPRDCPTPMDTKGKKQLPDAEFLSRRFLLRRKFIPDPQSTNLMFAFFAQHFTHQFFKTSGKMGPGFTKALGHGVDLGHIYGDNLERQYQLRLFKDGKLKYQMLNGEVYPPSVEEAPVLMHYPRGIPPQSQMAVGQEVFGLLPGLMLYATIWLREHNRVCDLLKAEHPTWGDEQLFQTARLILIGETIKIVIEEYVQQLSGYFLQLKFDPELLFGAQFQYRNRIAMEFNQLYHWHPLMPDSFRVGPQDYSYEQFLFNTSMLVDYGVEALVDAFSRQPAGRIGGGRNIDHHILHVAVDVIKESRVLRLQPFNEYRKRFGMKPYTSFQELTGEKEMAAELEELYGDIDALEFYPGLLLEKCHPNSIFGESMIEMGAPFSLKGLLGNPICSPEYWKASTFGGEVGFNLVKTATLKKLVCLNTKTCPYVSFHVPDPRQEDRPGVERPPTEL
Protocol: Determination of COX-1 Enzyme Inhibition by Hops Extract—The ability of a test material to inhibit COX-1 synthesis of PGE2 was determined essentially as described by Noreen, Y., et al. (J. Nat. Prod. 61, 2-7, 1998). […]

Row | SMILES | reported COX-2 specificity (COX-2) | IC50 (COX-1 enzyme (ovine)) [µM]
1 | CC(=O)Oc1ccccc1C(=O)O [aspirin] | 0.6 | –
2 | COc1cc(/C=C/C(=O)CC(=O)/C=C/c2ccc(O)c(OC)c2)ccc1O [curcumin] | – | 27.1
